Patent publication US20020137929A1, “1 - (3-heterocyclylphenyl) isothiourea, -isourea, -guanidine and -amidine herbicidal agents” (Intellectual Property Department, BASF Aktiengesellschaft, priority 1998, published 2002)

Experiments:
[1] = tested on: CASOB (Sicklepod); assay: Postemergence herbicidal evaluation; assay type: in vivo, Cassia obtusifolia; settings: for CASOB herbicidal rating: postemergence
Outline: (§1)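 Young plants, roughly two weeks from seeding, receive the active ingredient as a sprayed dispersion (acetone/water 50/50, 0.5% TWEEN 20) at 40 psi. Doses span about 0.0156 to 0.500 kg/ha. A visual score from 0 to 9 compares treated with control plants four to five weeks on.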

[2] = tested on: CHEAL (Lambsquarters, Common); assay: Postemergence herbicidal evaluation; assay type: in vivo, Chenopodium album; settings: for CHEAL herbicidal rating: postemergence
Outline: as §1

[3] = tested on: ECHCG (Barnyardgrass); assay: Postemergence herbicidal evaluation; assay type: in vivo, Echinochloa crus-galli; settings: for ECHCG herbicidal rating: postemergence
Outline: as §1

[4] = tested on: ORYSAT (Rice, Tebonnet); assay: Postemergence herbicidal evaluation; assay type: in vivo, Oryza sativa, (L.) Tebonnet; settings: for ORYSAT herbicidal rating: postemergence
Outline: as §1

[5] = tested on: GALAP (Galium); assay: Preemergence herbicidal evaluation; assay type: in vivo, Galium aparine; settings: rated 4-5 weeks after treatment; for GALAP rating: preemergence, 0-9 scale
Outline: (§2)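 Scores use a 0–9 visual scale covering stand, vigor, malformation, size and chlorosis relative to controls, rated four to five weeks after treatment. Before emergence, soil-planted seeds were sprayed with compound in aqueous acetone at roughly 0.0156–0.500 kg/ha and held in the greenhouse.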

[6] = tested on: SETVI (Foxtail, Green); assay: Preemergence herbicidal evaluation; assay type: in vivo, Setaria viridis; settings: rated 4-5 weeks after treatment; for SETVI rating: preemergence, 0-9 scale
Outline: as §2

[7] = tested on: GLXMAW (Soybean, Williams); assay: Preemergence herbicidal evaluation; assay type: in vivo, Glycine max, (L.) Merr. cv Williams; settings: rated 4-5 weeks after treatment; for GLXMAW rating: preemergence, 0-9 scale
Outline: as §2

[8] = tested on: ORYSAT (Rice, Tebonnet); assay: Preemergence herbicidal evaluation; assay type: in vivo, Oryza sativa, (L.) Tebonnet; settings: rated 4-5 weeks after treatment; for ORYSAT rating: preemergence, 0-9 scale
Outline: as §2

[9] = tested on: TRZAWR (Wheat, Winter, cv Riband); assay: Preemergence herbicidal evaluation; assay type: in vivo, Triticum aestivum; settings: rated 4-5 weeks after treatment; for TRZAWR rating: preemergence, 0-9 scale
Outline: as §2

[10] = tested on: ZEAMX (Corn, Field); assay: Preemergence herbicidal evaluation; assay type: in vivo, Zea mays; settings: rated 4-5 weeks after treatment; for ZEAMX rating: preemergence, 0-9 scale
Outline: as §2

[11] = tested on: CYPIR (Rice Flatsedge); assay: Preemergence weed control under flooded paddy conditions; assay type: in vivo, Cyperus iria; settings: rated 3-4 weeks after treatment
Outline: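 Visual injury scored 0-9 against control three to four weeks post-treatment, greenhouse-grown. Application: acetone/water (50/50) solutions dosed directly into flood water (1.5-3 cm over silt loam, planted top 0.5 cm), roughly 0.0313 to 0.500 kg/ha active ingredient.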

[12] = tested on: MOOVA (Monochoria); assay: as above; assay type: in vivo, Monochoria vaginalis; settings: rated 3-4 weeks after treatment
Outline: (§3)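 Seeds or propagules sown in top 0.5 cm of silt loam soil, flooded 1.5 to 3 cm above surface throughout. Compound in 50/50 v/v aqueous/acetone pipetted into flood water at about 0.0313 to 0.500 kg/ha. Visual 0-9 rating versus control after three to four weeks in greenhouse.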

[13] = tested on: CYPSE (Flatsedge); assay: Postemergence weed control under flooded paddy conditions; assay type: in vivo, Cyperus serotinus; settings: postemergence weeds
Outline: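 Injury ratings (0–9 scale covering stand, vigor, malformation, size, chlorosis and overall appearance versus control) were made three to four weeks after treatment. Test material, about 0.0313 to 0.500 kg/ha a.i. in 50/50 v/v aqueous/acetone, was added to flood water 1.5 to 3 cm deep over 3 to 5 cm weeds and 1.5 to 2.5 leaf rice.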

[14] = tested on: SAGPY (Arrowhead (Pygmaea)); assay: Preemergence weed control under flooded paddy conditions; assay type: in vivo, Sagittaria pygmaea; settings: rated 3-4 weeks after treatment
Outline: as §3

C=CCN1C(=O)C(CC(=O)Nc2ccccc2)SC1=Nc1cc(-n2c(=O)cc(C(F)(F)F)n(C)c2=O)c(F)cc1Cl (stereo not shown) [Compound 44, 3-Allyl-2-{{2-chloro-5-[3,6-dihydro-3-methyl-2,6-dioxo-4-(trifluoromethyl)-1(2H)-pyrimidinyl]-4-fluorophenyl}imino}-4-oxo-5-thiazolidineacetanilide]
Postemergence herbicidal rating CASOB ([1]; Rate 0.0156 kg/ha): 0.0
Postemergence herbicidal rating CASOB ([1]; Rate 0.0313 kg/ha): 0.0
Postemergence herbicidal rating CASOB ([1]; Rate 0.0625 kg/ha): 2.0
Postemergence herbicidal rating CASOB ([1]; Rate 0.1250 kg/ha): 2.0
Postemergence herbicidal rating CHEAL ([2]; Rate 0.0156 kg/ha): 1.0
Postemergence herbicidal rating CHEAL ([2]; Rate 0.0313 kg/ha): 4.0
Postemergence herbicidal rating CHEAL ([2]; Rate 0.0625 kg/ha): 5.0
Postemergence herbicidal rating CHEAL ([2]; Rate 0.1250 kg/ha): 9.0
Postemergence herbicidal rating ECHCG ([3]; Rate 0.0156 kg/ha): 0.0
Postemergence herbicidal rating ECHCG ([3]; Rate 0.0313 kg/ha): 1.0
Postemergence herbicidal rating ECHCG ([3]; Rate 0.0625 kg/ha): 2.0
Postemergence herbicidal rating ECHCG ([3]; Rate 0.1250 kg/ha): 1.0
Postemergence herbicidal rating ORYSAT ([4]; Rate 0.0156 kg/ha): 3.0
Postemergence herbicidal rating ORYSAT ([4]; Rate 0.0313 kg/ha): 4.0
Postemergence herbicidal rating ORYSAT ([4]; Rate 0.0625 kg/ha): 4.0
Postemergence herbicidal rating ORYSAT ([4]; Rate 0.1250 kg/ha): 4.0
Preemergence herbicidal rating GALAP ([5]; rate 0.0156 kg/ha): 1.0
Preemergence herbicidal rating GALAP ([5]; rate 0.0313 kg/ha): 1.0
Preemergence herbicidal rating GALAP ([5]; rate 0.0625 kg/ha): 1.0
Preemergence herbicidal rating GALAP ([5]; rate 0.1250 kg/ha): 9.0
Preemergence herbicidal rating GALAP ([5]; rate 0.2500 kg/ha): 9.0
Preemergence herbicidal rating GALAP ([5]; rate 0.5000 kg/ha): 9.0
Preemergence herbicidal rating SETVI ([6]; rate 0.0156 kg/ha): 0.0
Preemergence herbicidal rating SETVI ([6]; rate 0.0313 kg/ha): 0.0
Preemergence herbicidal rating SETVI ([6]; rate 0.0625 kg/ha): 0.0
Preemergence herbicidal rating SETVI ([6]; rate 0.1250 kg/ha): 0.0
Preemergence herbicidal rating SETVI ([6]; rate 0.2500 kg/ha): 0.0
Preemergence herbicidal rating SETVI ([6]; rate 0.5000 kg/ha): 0.0
Preemergence herbicidal rating GLXMAW ([7]; rate 0.0156 kg/ha): 0.0
Preemergence herbicidal rating GLXMAW ([7]; rate 0.0313 kg/ha): 0.0
Preemergence herbicidal rating GLXMAW ([7]; rate 0.0625 kg/ha): 0.0
Preemergence herbicidal rating GLXMAW ([7]; rate 0.1250 kg/ha): 0.0
Preemergence herbicidal rating GLXMAW ([7]; rate 0.2500 kg/ha): 0.0
Preemergence herbicidal rating GLXMAW ([7]; rate 0.5000 kg/ha): 0.0
Preemergence herbicidal rating ORYSAT ([8]; rate 0.0156 kg/ha): 0.0
Preemergence herbicidal rating ORYSAT ([8]; rate 0.0313 kg/ha): 0.0
Preemergence herbicidal rating ORYSAT ([8]; rate 0.0625 kg/ha): 0.0
Preemergence herbicidal rating ORYSAT ([8]; rate 0.1250 kg/ha): 0.0
Preemergence herbicidal rating ORYSAT ([8]; rate 0.2500 kg/ha): 0.0
Preemergence herbicidal rating ORYSAT ([8]; rate 0.5000 kg/ha): 0.0
Preemergence herbicidal rating TRZAWR ([9]; rate 0.0156 kg/ha): 0.0
Preemergence herbicidal rating TRZAWR ([9]; rate 0.0313 kg/ha): 0.0
Preemergence herbicidal rating TRZAWR ([9]; rate 0.0625 kg/ha): 0.0
Preemergence herbicidal rating TRZAWR ([9]; rate 0.1250 kg/ha): 0.0
Preemergence herbicidal rating TRZAWR ([9]; rate 0.2500 kg/ha): 0.0
Preemergence herbicidal rating TRZAWR ([9]; rate 0.5000 kg/ha): 0.0
Preemergence herbicidal rating ZEAMX ([10]; rate 0.0156 kg/ha): 0.0
Preemergence herbicidal rating ZEAMX ([10]; rate 0.0313 kg/ha): 0.0
Preemergence herbicidal rating ZEAMX ([10]; rate 0.0625 kg/ha): 0.0
Preemergence herbicidal rating ZEAMX ([10]; rate 0.1250 kg/ha): 1.0
Preemergence herbicidal rating ZEAMX ([10]; rate 0.2500 kg/ha): 0.0
Preemergence herbicidal rating ZEAMX ([10]; rate 0.5000 kg/ha): 0.0
Herbicidal rating CYPIR ([11]; 0.0313 kg/ha): 5.0
Herbicidal rating CYPIR ([11]; 0.0625 kg/ha): 6.0
Herbicidal rating CYPIR ([11]; 0.1250 kg/ha): 6.0
Herbicidal rating CYPIR ([11]; 0.2500 kg/ha): 9.0
Herbicidal rating MOOVA ([12]; 0.0313 kg/ha): 4.0
Herbicidal rating MOOVA ([12]; 0.0625 kg/ha): 4.0
Herbicidal rating MOOVA ([12]; 0.1250 kg/ha): 7.0
Herbicidal rating MOOVA ([12]; 0.2500 kg/ha): 9.0
Herbicidal rating CYPSE ([13]; rate 0.0313 kg/ha, 3-4 weeks after treatment): 0.0
Herbicidal rating CYPSE ([13]; rate 0.0625 kg/ha, 3-4 weeks after treatment): 0.0
Herbicidal rating CYPSE ([13]; rate 0.1250 kg/ha, 3-4 weeks after treatment): 0.0
Herbicidal rating CYPSE ([13]; rate 0.2500 kg/ha, 3-4 weeks after treatment): 0.0

CCOC(=O)CN1C(=O)C(CC(=O)OCCF)SC1=Nc1cc(-n2c(=O)cc(C(F)(F)F)n(C)c2=O)c(F)cc1Cl (stereo not shown) [Compound 82, 2-{{2-Chloro-5-[3,6-dihydro-3-methyl-2,6-dioxo-4-(trifluoromethyl)-1(2H)-pyrimidinyl]-4-fluoro-phenyl}imino}-4-oxo-3,5-thiazolidinediacetic acid, 3-ethyl 2-fluoroethyl ester]
CASOB herbicidal rating ([1]; rate 0.0158 kg/ha): 9.0
CASOB herbicidal rating ([1]; rate 0.0315 kg/ha): 9.0
CASOB herbicidal rating ([1]; rate 0.0630 kg/ha): 9.0
CHEAL herbicidal rating ([2]; rate 0.0158 kg/ha): 7.0
CHEAL herbicidal rating ([2]; rate 0.0315 kg/ha): 9.0
CHEAL herbicidal rating ([2]; rate 0.0630 kg/ha): 9.0
ECHCG herbicidal rating ([3]; rate 0.0158 kg/ha): 9.0
ECHCG herbicidal rating ([3]; rate 0.0315 kg/ha): 9.0
ECHCG herbicidal rating ([3]; rate 0.0630 kg/ha): 9.0
ORYSAT herbicidal rating ([4]; rate 0.0158 kg/ha): 3.0
ORYSAT herbicidal rating ([4]; rate 0.0315 kg/ha): 3.0
ORYSAT herbicidal rating ([4]; rate 0.0630 kg/ha): 8.5
GALAP rating ([5]; 0.0156 kg/ha): 0.0
GALAP rating ([5]; 0.0313 kg/ha): 0.0
GALAP rating ([5]; 0.0625 kg/ha): 0.0
GALAP rating ([5]; 0.1250 kg/ha): 9.0
GALAP rating ([5]; 0.2500 kg/ha): 9.0
SETVI rating ([6]; 0.0156 kg/ha): 0.0
SETVI rating ([6]; 0.0313 kg/ha): 0.0
SETVI rating ([6]; 0.0625 kg/ha): 7.0
SETVI rating ([6]; 0.1250 kg/ha): 9.0
SETVI rating ([6]; 0.2500 kg/ha): 9.0
GLXMAW rating ([7]; 0.0156 kg/ha): 0.0
GLXMAW rating ([7]; 0.0313 kg/ha): 0.0
GLXMAW rating ([7]; 0.0625 kg/ha): 0.0
GLXMAW rating ([7]; 0.1250 kg/ha): 0.0
GLXMAW rating ([7]; 0.2500 kg/ha): 5.0
ORYSAT rating ([8]; 0.0156 kg/ha): 0.0
ORYSAT rating ([8]; 0.0313 kg/ha): 0.0
ORYSAT rating ([8]; 0.0625 kg/ha): 0.0
ORYSAT rating ([8]; 0.1250 kg/ha): 0.0
ORYSAT rating ([8]; 0.2500 kg/ha): 0.0
TRZAWR rating ([9]; 0.0156 kg/ha): 0.0
TRZAWR rating ([9]; 0.0313 kg/ha): 0.0
TRZAWR rating ([9]; 0.0625 kg/ha): 0.0
TRZAWR rating ([9]; 0.1250 kg/ha): 0.0
TRZAWR rating ([9]; 0.2500 kg/ha): 0.0
ZEAMX rating ([10]; 0.0156 kg/ha): 0.0
ZEAMX rating ([10]; 0.0313 kg/ha): 0.0
ZEAMX rating ([10]; 0.0625 kg/ha): 0.0
ZEAMX rating ([10]; 0.1250 kg/ha): 0.0
ZEAMX rating ([10]; 0.2500 kg/ha): 3.0
CYPIR herbicidal effect rating ([11]; 0.0313 kg/ha): 0.0
CYPIR herbicidal effect rating ([11]; 0.0625 kg/ha): 0.0
CYPIR herbicidal effect rating ([11]; 0.1250 kg/ha): 3.0
CYPIR herbicidal effect rating ([11]; 0.2500 kg/ha): 3.0
SAGPY herbicidal effect rating ([14]; 0.0313 kg/ha): 4.0
SAGPY herbicidal effect rating ([14]; 0.0625 kg/ha): 4.0
SAGPY herbicidal effect rating ([14]; 0.1250 kg/ha): 4.0
SAGPY herbicidal effect rating ([14]; 0.2500 kg/ha): 7.0
Herbicidal rating CYPSE ([13]; Rate 0.0313 kg/ha, rated 3 to 4 weeks after treatment): 0.0
Herbicidal rating CYPSE ([13]; Rate 0.0625 kg/ha, rated 3 to 4 weeks after treatment): 0.0
Herbicidal rating CYPSE ([13]; Rate 0.1250 kg/ha, rated 3 to 4 weeks after treatment): 2.0
Herbicidal rating CYPSE ([13]; Rate 0.2500 kg/ha, rated 3 to 4 weeks after treatment): 4.0
